Test results from PubChem BioAssay AID652289 (Broad Institute, 2013).
Several values for one entry are separate records, joined by “and”; a condition that tells them apart may be missing. Identical values can stand only once. Activity calls are given as the source filed them. The rule behind the calls is not given here.

Legend:
[1] = quorum luxo light induction, V. cholerae bh1651 luxod47e, confirmatory dose response (AID 652289); conditions: V. cholerae BH1651 luxOD47E, luciferase light induction, 6 h
[2] = test system: V. cholerae BH1651 luxOD47E, luciferase light induction, 6 h; assay: as above

Cc1ccc2cc3c(NC(=O)Cc4ccco4)nn(C)c3nc2c1
light induction ([1]; at 100 µM (top of the series)): 1.12% (inactive)

O=C(Nc1nnc(-c2cccnc2)o1)C1CCC1
light induction ([1]; at 100 µM (top of the series)): 0.001% (inactive)

O=C(Nc1nnc(-c2ccc3c(c2)CCCC3)o1)C1CCC1
light induction ([1]; at 80 µM (top of the series)): -0.005% (inactive)

Cn1nc(NC(=O)c2ccco2)c2ccccc21
AC40 [2]: 89.4 µM

COc1ccc(-c2nnc(NC(C)=O)o2)cc1
light induction ([1]; at 100 µM (top of the series)): 0.045% (inactive)

Cc1ccc2cc3c(NC(=O)c4ccc(C)o4)nn(C)c3nc2c1
light induction ([1]; at 100 µM (top of the series)): -0.015% (inactive)

Cc1ccc2cc3c(NC(=O)c4ccoc4)nn(C)c3nc2c1
light induction ([1]; at 80 µM (top of the series)): 2.86% (inactive)

Cc1ccc2cc3c(NC(=O)c4ccccn4)nn(C)c3nc2c1
light induction ([1]; at 100 µM (top of the series)): 0.001% (inactive)

Cn1nc(NC(=O)c2ccco2)c2cccnc21
AC40 [2]: 58.4 µM

CCCCCCCCCC(=O)[C@H](O)CC (racemic)
light induction ([1]; at 100 µM (top of the series)): 0.014% (inactive)

COc1ccc(S(=O)(=O)Nc2nnc(-c3ccc4c(c3)OCCO4)o2)cc1
light induction ([1]; at 100 µM (top of the series)): 0.005% (inactive)

COc1ccc2cc3c(NC(=O)c4ccco4)nn(C)c3nc2c1
AC40 [2]: 2.73 µM

Cc1ccc2cc3c(NC(=O)C4CCCC4)nn(C)c3nc2c1
AC40 [2]: 40.6 µM

Cn1nc(NC(=O)c2ccco2)c2cc3ccc(C(C)(C)C)cc3nc21
light induction ([1]; at 100 µM (top of the series)): 0% (inactive)

Cc1ccc2cc3c(NC(=O)c4cc5ccccc5o4)nn(C)c3nc2c1
light induction ([1]; at 100 µM (top of the series)): -0.007% (inactive)

Cn1nc(NC(=O)c2ccco2)c2cc3ccccc3nc21
AC40 [2]: 3.58 µM

O=C(Cc1ccc(-c2ccccc2)cc1)NC1CCC1
light induction ([1]; at 100 µM (top of the series)): -0.023% (inactive)

O=C(Nc1nnc(-c2ccccc2Cl)o1)C1CCCCC1
light induction ([1]; at 100 µM (top of the series)): -0.01% (inactive)

Cc1cc2cc3c(NC(=O)c4ccco4)nn(C)c3nc2cc1C
AC40 [2]: 63.3 µM

O=S(=O)(Nc1nnc(-c2ccc3c(c2)OCCO3)o1)c1ccc(Cl)cc1
light induction ([1]; at 100 µM (top of the series)): -0.005% (inactive)

O=C(Nc1nnc(-c2ccc3c(c2)OCCO3)o1)C(F)(F)c1ccccc1
light induction ([1]; at 100 µM (top of the series)): -0.004% (inactive)

CC(C)c1ccc2cc3c(NC(=O)c4ccco4)nn(C)c3nc2c1
light induction ([1]; at 100 µM (top of the series)): 0.507% (inactive)

CC(C)(C)OC(=O)N1CCC(C(=O)Nc2nnc(-c3ccc4c(c3)OCCO4)o2)CC1
light induction ([1]; at 100 µM (top of the series)): 0.028% (inactive)

O=C(Nc1nnc(-c2ccncc2)o1)C1CCC1
light induction ([1]; at 100 µM (top of the series)): 0.055% (inactive)

c1ccc(CNc2nnc(-c3ccc4c(c3)OCCO4)o2)cc1
light induction ([1]; at 100 µM (top of the series)): -0.004% (inactive)

CCCCCCCCCC(=O)C(O)CC (stereo unspecified)
light induction ([1]; at 50 µM (top of the series)): 0.038% (inactive)

Cc1ccc2cc3c(NC(=O)c4cccs4)nn(C)c3nc2c1
AC40 [2]: 70.8 µM

CCC(C)(C)C(=O)Nc1nnc(-c2ccc3c(c2)OCCO3)o1
light induction ([1]; at 80 µM (top of the series)): -0.006% (inactive)

Cc1cc(F)c2cc3c(NC(=O)c4ccco4)nn(C)c3nc2c1
AC40 [2]: 33.5 µM

O=C(CC1CCCCC1)Nc1nnc(-c2ccc3c(c2)CCCC3)o1
light induction ([1]; at 35 µM (top of the series)): 0.061% (inactive)

COc1ccccc1-c1nnc(NC(=O)C2CCCCC2)o1
AC40 [2]: > 100 µM (inactive)

Cc1ccc2cc3c(NC(=O)c4ccco4)nn(C)c3nc2c1
AC40 [2]: 5.26 µM and 15.3 µM

CN(C)/C=N/c1nnc(-c2ccc3c(c2)OCCO3)o1
light induction ([1]; at 100 µM (top of the series)): 0.039% (inactive)

COc1ccc(-c2nnc(NC(=O)C3CCCCC3)o2)cc1
AC40 [2]: > 100 µM (inactive)

O=C(Nc1nnc(-c2ccc(Cl)cc2)o1)C1CCCCC1
light induction ([1]; at 80 µM (top of the series)): -0.026% (inactive)

Cc1cc2nc3c(cc2cc1F)c(NC(=O)c1ccco1)nn3C
AC40 [2]: 68.7 µM

O=C(Nc1nnc(-c2ccc3c(c2)OCCO3)o1)C1CCCCCC1
AC40 [2]: 6.99 µM

O=C(Nc1nnc(-c2ccc3c(c2)OCCO3)o1)C1CC1
light induction ([1]; at 100 µM (top of the series)): 0.004% (inactive)

CCc1ccc2cc3c(NC(=O)c4ccco4)nn(C)c3nc2c1
AC40 [2]: 32.9 µM

C(=N\c1nnc(-c2ccc3c(c2)OCCO3)o1)/c1ccccc1
light induction ([1]; at 100 µM (top of the series)): 0.005% (inactive)

O=C(Nc1nnc(-c2cccc(Cl)c2)o1)C1CCCCC1
light induction ([1]; at 80 µM (top of the series)): 0.065% (inactive)

O=C(Nc1nnc(-c2ccc3c(c2)OCCO3)o1)C1CCC1
light induction ([1]; at 100 µM (top of the series)): 0.013% (inactive)

O=C(Nc1nnc(-c2ccc3c(c2)OCCO3)o1)C1CCCCC1
AC40 [2]: 5.31 µM and 2.57 µM

O=C(Nc1nnc(C2CCCC2)o1)C1CCCCC1
light induction ([1]; at 100 µM (top of the series)): -0.015% (inactive)

O=C(Nc1nnc(-c2cccnc2)o1)C1CCCCC1
AC40 [2]: 61.3 µM

CCn1nnnc1NCc1ccc(C(C)C)cc1
light induction ([1]; at 100 µM (top of the series)): -0.004% (inactive)

Cn1ccc(NC(=O)c2ccco2)n1
light induction ([1]; at 100 µM (top of the series)): 0.053% (inactive)

O=C(CC1CCCCC1)Nc1nnc(-c2cccnc2)o1
light induction ([1]; at 80 µM (top of the series)): -0.016% (inactive)

Cc1cc(F)cc2nc3c(cc12)c(NC(=O)c1ccco1)nn3C
AC40 [2]: 41.3 µM

CN1CCC(C(=O)Nc2nnc(-c3ccc4c(c3)OCCO4)o2)CC1
light induction ([1]; at 100 µM (top of the series)): 0.052% (inactive)

COc1cccc(-c2nnc(NC(=O)C3CCCCC3)o2)c1
light induction ([1]; at 100 µM (top of the series)): -0.005% (inactive)
